Structures can show the parent of a compound that is named as a salt.
Tests used:
p75NTR receptor [1] = target: T1, p75NTR receptor (Homo sapiens, UniProt P08138); test: Dimerization of the p75NTR receptor independently of its ligand (soluble p75NTR-alkaline phosphatase binding to SK-N-BE Bep 75 cells); set-up: the Bep 75 clone, stably expressing the whole form of the human p75^NTRreceptor; a soluble form of the p75^NTRreceptor (extracellular part of the receptor); expressed in transfected cells; host or cells: SK-N-BE Bep 75 cells (membrane receptor); transiently transfected HEK293 cells (secreted soluble p75NTR-alkaline phosphatase, used as culture supernatant); settings: soluble p75NTR-alkaline phosphatase 10 nM, 1 h preincubation at 37° C.
T1 sequence (P08138 29-427): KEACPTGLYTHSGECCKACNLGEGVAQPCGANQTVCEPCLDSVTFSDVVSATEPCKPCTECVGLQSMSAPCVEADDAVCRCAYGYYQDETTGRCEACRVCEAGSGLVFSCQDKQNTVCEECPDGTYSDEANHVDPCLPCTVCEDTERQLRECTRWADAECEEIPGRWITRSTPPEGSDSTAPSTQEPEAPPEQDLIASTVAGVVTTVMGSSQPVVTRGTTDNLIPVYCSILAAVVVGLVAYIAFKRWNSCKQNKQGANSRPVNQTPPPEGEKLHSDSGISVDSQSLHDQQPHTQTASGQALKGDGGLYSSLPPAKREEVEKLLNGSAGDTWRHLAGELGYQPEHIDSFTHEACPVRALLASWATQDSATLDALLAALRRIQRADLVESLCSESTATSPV
Description: (§1) The SK-N-BE parent strain (human neuroblastoma) and the Bep 75 clone, stably expressing the whole form of the human p75^NTRreceptor (SK-N-BE Bep 75) are cultured conventionally in a RPMI culture medium containing FCS (5%), sodium pyruvate (1 mM) and glutamine (4 mM). For the SK-N-BE Bep 75 cells, hygromycin (200 μl/20 ml of medium) is added as selection agent.
Study of the dimerization of the p75^NTRreceptor independently of its ligand
The p75^NTRreceptor dimerization study is carried out on a cell suspension of the SK-N-BE Bep 75 strain. The cells (2.5 10^4cells/well) are placed in wells (96-well plate) for 24 h, and then preincubated for 1 h at 37° C. in the presence or absence of the compounds according to the invention. Supernatant is then added, this supernatant being derived from the culture of HEK293 human cells of renal origin expressing, after 48 h of transfection, and secreting a soluble form of the p75^NTRreceptor (extracellular part of the receptor) coupled to an alkaline phosphatase, at the final concentration of 10 nM. The quantification of the specific binding of the soluble p75^NTRreceptor to the receptor present on SK-N-BE Bep 75 cells is determined by measuring the alkaline phosphatase enzymatic activity after incubation of the cells for 1 hour at 37° C. in the presence of the supernatant. After filtration and transfer of the filters into 24-well plates, the alkaline phosphatase activity is determined by adding CDP-Star chemiluminescent substrate (ready-to-use, Roche).

p75NTR receptor [2] = target: T1, p75NTR receptor; test: Binding of 125I NGF to the p75NTR receptor (competition, SK-N-BE Bep 75 cell suspension); set-up: the Bep 75 clone, stably expressing the whole form of the human p75^NTRreceptor; expressed in transfected cells; host or cells: SK-N-BE Bep 75 (human neuroblastoma clone, hygromycin selection); settings: SK-N-BE Bep 75 cells; 125I NGF 0.3 nM
Description: as §1
Study of the binding of the ^125I NGF to the p75^NTRreceptor
The NGF binding study (nerve grown factor radiolabelled with iodine-125, Amersham—2000 Ci/mmol) is carried out on a cell suspension of the SK-N-BE Bep 75 strain in accordance with the method described by Weskamp (Neuron, 1991, 6, 649-663). The nonspecific binding is determined by measuring the total binding after one hour of pre-incubation with the cells at 37° C. in the presence of non-radiolabelled NGF (1 μM). The specific binding is calculated by the difference between the total binding measurement and the non-specific binding measurement. The competition experiments are carried out using an iodinated NGF (^125I NGF) concentration of 0.3 nM.

[3] = test system: human neuroblastoma strains SH-SY-5Y and SK-N-BE Bep 75; test: Measurement of apoptosis (NGF-induced, cell death detection ELISA); format: cell-based; settings: SH-SY5Y, NGF 10 ng/ml, cell strain not given, read-out: IC50, inhibitory activity on NGF-induced apoptosis
Description: The SH-SY-5Y strain (human neuroblastoma) is cultured conventionally in a DMEM culture medium (Dulbecco's Modified Eagle's Medium) (Gibco BRL, France) containing FCS (5%) (foetal calf serum) (Boehringer Mannheim, Germany), sodium pyruvate (1 mM) and glutamine (4 mM) in culture flasks coated with collagen (Becton Dickinson, France).
as §1
The cells (human neuroblastoma strains SH-SY-5Y and SK-N-BE Bep 75) are placed in 35 mm diameter Petri dishes (Biocoat collagen I), (10^5cells/well) in an appropriate culture medium containing 5% of FCS for 24 h. […] The degrees of apoptosis are measured 48 hours after the treatments in the case of the SH-SY-5Y strain, and 24 hours after the treatments in the case of the SK-N-BE Bep 75 strain, by quantification of the DNA fragment-associated cytoplasmic histones (cell death detection ELISA, Boehringer Mannheim, Germany). The degrees of apoptosis are expressed as amount of oligonucleosomes/10^5cells. […]

Row | melting point | IC50 (p75NTR receptor [1]) | IC50 (p75NTR receptor [2]) | Structure (SMILES) | IC50 [3]
1 | 236 to 239 °C |  |  | Cc1ccc(N2CCN(CC(=O)N3CC=C(c4ccc(Cl)c(C(F)(F)F)c4)CC3)CC2=O)nc1 (as salt: HCl) [Compound 2, 4-{2-[4-(4-chloro-3-trifluoromethylphenyl)-3,6-dihydro-2H-pyridin-1-yl]-2-oxoethyl}-1-(5-methylpyridin-2-yl)piperazin-2-one] | 
2 | 141 to 143 °C | 0.11 nM | 0.1 nM | O=C(CN1CCN(c2ccc(C(F)(F)F)cn2)C(=O)C1)N1CC=C(c2ccc(Cl)cc2)CC1 [Compound 3, 4-{2-[4-(4-chlorophenyl)-3,6-dihydro-2H-pyridin-1-yl]-2-oxoethyl}-1-(5-trifluoromethylpyridin-2-yl)piperazin-2-one] | 
3 |  | 3.88 nM |  | Cc1ccc(N2CCN(CC(=O)N3CC=C(c4ccc(Cl)c(C(F)(F)F)c4)CC3)CC2=O)nc1 [Compound 2, 4-{2-[4-(4-chloro-3-trifluoromethylphenyl)-3,6-dihydro-2H-pyridin-1-yl]-2-oxoethyl}-1-(5-methylpyridin-2-yl)piperazin-2-one] | 
4 | 160 to 163 °C |  |  | O=C(CN1CCN(c2ccccn2)C(=O)C1)N1CC=C(c2ccc(Cl)c(C(F)(F)F)c2)CC1 (as salt: HCl) [Compound 5, 4-{2-[4-(4-chloro-3-trifluoromethylphenyl)-3,6-dihydro-2H-pyridin-1-yl]-2-oxoethyl}-1-pyridin-2-ylpiperazin-2-one] | 
5 | 210 to 211 °C |  |  | O=C(CN1CCN(c2ccc(C(F)(F)F)cn2)C(=O)C1)N1CC=C(c2ccc(Cl)c(C(F)(F)F)c2)CC1 (as salt: HCl) [Compound 1, 4-{2-[4-(4-chloro-3-trifluoromethylphenyl)-3,6-dihydro-2H-pyridin-1-yl]-2-oxoethyl}-1-(5-trifluoromethylpyridin-2-yl)piperazin-2-one] | 
6 |  | 1.34 nM | 5.2 nM | O=C(CN1CCN(c2ccc(C(F)(F)F)cn2)C(=O)C1)N1CC=C(c2ccc(Cl)c(C(F)(F)F)c2)CC1 [Compound 1, 4-{2-[4-(4-chloro-3-trifluoromethylphenyl)-3,6-dihydro-2H-pyridin-1-yl]-2-oxoethyl}-1-(5-trifluoromethylpyridin-2-yl)piperazin-2-one] | 1.61 nM
7 |  |  |  | O=C(CN1CCN(c2ccccn2)C(=O)C1)N1CC=C(c2ccc(Cl)c(C(F)(F)F)c2)CC1 [Compound 5, 4-{2-[4-(4-chloro-3-trifluoromethylphenyl)-3,6-dihydro-2H-pyridin-1-yl]-2-oxoethyl}-1-pyridin-2-ylpiperazin-2-one] | 52 nM

Source: US8247404B2, “Derivatives of 2-oxoalkyl-1-piperazin-2-one, preparation method thereof and therapeutic use of same” (Sanofi, priority 2008, dated 2012)
